The values below are quoted from earlier work in patent US20100297195A1, “CONTROLLED RELEASE LAMOTRIGINE FORMULATIONS” (RANBAXY LABORATORIES LIMITED, priority 2009, published 2010).

For the series the following is noted: oral administration.

Consider `Nc1nnc(-c2cccc(Cl)c2Cl)c(N)n1` [Lamotrigine, 3,5-diamino-6-(2,3-dichlorophenyl)-1,2,4-triazine], for which the absolute bioavailability was 98% and the “effect of food on bioavailability” value is “not affected by food”.
